Key:
[1] = test system: edema of the paw induced by carragenine; test: Edema of rat paws induced by carragenine; assay type: in vivo, male rats of the Wistar type; details: i.p. 30 minutes before carragenine 1%; molar dose equivalent to diclofenac; paw volume up to 4 hours
Protocol: For the performance of this one test, animals, such as, for example, male rats of the Wistar type were used, which weighed between 150-180 g. These rats were acquired from CEMIB/UNICAMP.
Five rats were treated with the diclofenac, five rats with the modified diclofenac and five rats with the DMSO vehicle.
After a period of approximately 30 minutes, the animals were inoculated with an intraplantary injection of approximately 0.1 mL of a solution of carragenine 1% in saline solution, at the right hind paw, while the contralateral paw received the same volume but only of the saline solution.
The quantification of the volume of the paw was performed by means of an adequate instrument, such as, for example a pletismometer. The volume of the paws was checked before the administration of the carragenine (T0) and after 30 minutes, 1, 2, 3 and 4 hours. The T0 value was subtracted from the other values arrived at.

[2] = biological target: COX-1 (Homo sapiens, UniProt P23219); details: read-out: concentration responsible for the inhibition of 50% of the production of TXA2 (IC50); human whole blood without anticoagulant, 37° C., 1 hour, serum
COX-1, sequence (P23219 24-599): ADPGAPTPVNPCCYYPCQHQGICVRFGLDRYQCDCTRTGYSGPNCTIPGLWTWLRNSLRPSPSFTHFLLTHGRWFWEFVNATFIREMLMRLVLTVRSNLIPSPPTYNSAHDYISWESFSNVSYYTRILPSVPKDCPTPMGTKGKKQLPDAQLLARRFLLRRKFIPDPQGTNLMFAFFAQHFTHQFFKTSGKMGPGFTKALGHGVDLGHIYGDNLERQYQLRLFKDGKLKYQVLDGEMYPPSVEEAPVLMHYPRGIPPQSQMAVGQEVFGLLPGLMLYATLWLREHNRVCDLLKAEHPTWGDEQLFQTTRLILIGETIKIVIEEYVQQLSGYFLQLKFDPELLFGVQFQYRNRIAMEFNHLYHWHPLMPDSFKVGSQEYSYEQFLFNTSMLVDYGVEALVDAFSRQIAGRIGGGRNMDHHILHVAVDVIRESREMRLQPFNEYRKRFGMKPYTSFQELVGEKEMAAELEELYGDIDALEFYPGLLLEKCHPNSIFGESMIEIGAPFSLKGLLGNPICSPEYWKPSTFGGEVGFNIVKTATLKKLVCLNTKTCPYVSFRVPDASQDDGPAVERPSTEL

In the case of `O=C(Cc1ccccc1Nc1c(Cl)cccc1Cl)OCc1ccc2c(c1)no[n+]2[O-]` [modified diclofenac, [2-(2,6-dichloro-phenylamino)-phenyl]-acetic acid 1-oxy-benzo[1,2,5]oxadiazol-5-ylmethyl ester], the “inhibition of the edema of the paw induced by carragenine (paw volume, FIG. 1)” value [1] is reported as “capable of inhibiting the edema of the paw induced by carragenine in the same way that the standard diclofenac” and the IC50 [2] is reported as ~40.4 µM.
